Test results: PubChem BioAssay (NCI)
Values joined by “and” are separate entries in the source; they are usually repeats but may differ in a detail not shown here. Identical values can stand only once.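 Cells were grown in 96-well plates and exposed to each compound for 48 hours at five concentrations; endpoints were interpolated linearly between bracketing concentrations, or set to the highest concentration if not reached. Abbreviation: GI50, concentration required for 50% inhibition of growth. At the TGI there is no net growth.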

Each compound was assayed on OVCAR-3 ovarian (assay: NCI anticancer screen, dose series, 48 h).

Structure (SMILES)	TGI	GI50
CN(C)CC(CC1=C(CC(CN(C)C)N(C)C)CCC1)N(C)C (stereo unspecified)	> 100 µM	–
CC12CC3OC(=O)C1COC14OC5(C2C1=O)C(O)(CCC1C4CC(O)C2(O)CC=CC(=O)C12C)C(=O)OC35C (stereo unspecified)	> 100 µM	–
NC(=O)c1c(NC(=O)c2ccccn2)sc2c1CCC(=O)C2	45.7 µM	3.25 µM
O=c1cccccc1[O-].O=c1cccccc1[O-].[O]=[U+2]=[O]	36.8 µM	–
COc1ccc(C(=O)/C=C/c2cccc([N+](=O)[O-])c2)c(OC)c1	> 50 µM	1.72 µM
CCOC(=O)C(NC(=O)c1ccco1)(Nc1nc2ccc(OCC)cc2s1)C(F)(F)F (stereo unspecified)	> 100 µM	–
CCC(C)C1=C(OC(C)=O)[N+]2([O-])Oc3ccc(-c4c(OC(C)=O)c(OC(C)=O)c(-c5ccc(OC(C)=O)cc5)c(OC(C)=O)c4OC(C)=O)cc3OC2(C(C)CC)C(=O)N1OC(C)=O (stereo unspecified)	29.5 µM	–
O=C(O)C1C2CCC(O2)C1C(=O)Nc1cccc2cccnc12 (stereo unspecified)	> 100 µM	–
COc1cccc2c1Cc1cc(-c3ccccc3)[n+](C)n1-2	> 100 µM	–
O=C(OCN1C(=O)C2C3C=CC(C2C1=O)C1C2C(=O)N(COC(=O)C4CCCN4)C(=O)C2C31)C1CCCN1 (stereo unspecified)	> 100 µM	–
O=C(C[n+]1ccc2ccccc2c1)c1ccc2ccc3ccccc3c2c1	17.7 µM	–
NCCCCc1cc(O)c2c(c1O)C(=O)c1ccccc1C2=O	19.4 µM	–
Cc1ccccc1C(=O)N/N=C/c1ccc(Sc2nccn2C)c([N+](=O)[O-])c1	> 100 µM	–
CCn1c(-c2ccc(N=NNc3ccc(-c4n[nH]c(=S)n4CC)cc3)cc2)n[nH]c1=S	5.61 µM	–
CC(=O)C1=C(C)N(c2ccc(C)cc2)C2(O)C=CC(=O)C3C(=O)N(c4ccccc4)C(=O)C132 (stereo unspecified)	> 100 µM	–
COc1ccc2c(c1)[nH]c1c(/C=C/c3ccccc3)nccc12	36.9 µM	–
Clc1cc2c(cc1Cl)CC(NCCN1CCCC1)CC2 (stereo unspecified)	32 µM	–
[N-]=[N+]=CC(=O)c1ccccc1C#CCCc1ccccc1	61.5 µM	–
CCN(CC(=O)O)C(=O)c1cccnc1	> 100 µM	–
NCCSC(c1ccccc1)c1ccccc1	40.6 µM	–
CCCCCCCCC/C=C/C=C/C(=O)NCC(=O)NC1C(O)C(O)C(Nc2ncnc3nc[nH]c23)OC1C(O)CO (stereo unspecified)	0.0436 µM	–
COc1nc(C#CC2(O)CCCCC2)nc(OC)n1	20.4 µM	–
C[C@H](CCC(=O)O)[C@H]1CC[C@@]2(C)[C@@H]3C(=O)C[C@H]4C(C)(C)[C@@H](O)CC[C@]4(C)[C@H]3C(=O)C[C@]12C	> 100 µM	–

What follows are compounds tested on COLO 205 colon (assay: NCI anticancer screen, dose series, 48 h).

Structure (SMILES)	TGI	GI50
CCOC(=O)C1=NN(c2ccc(C)cc2)C2=CC(C)=NN(C)C(=S)N21	> 100 µM	–
O=C(c1cccs1)N(C(=S)OC12CC3CC(CC(C3)C1)C2)c1ccccc1	33.8 µM	–
C(=N\NC1=NCCN1)/c1ccc(-c2cn3cc(/C=N/NC4=NCCN4)ccc3n2)cc1	> 100 µM	–
CC1CC[C@@]2(OC1)OC1C[C@H]3[C@@H]4CC=C5CC(OC6OC(CO)C(OC7OC(CO)C(O)C(OC8OCC(O)C(O)C8O)C7OC7OC(CO)C(O)C(O)C7O)C(O)C6O)CCC5(C)[C@H]4CCC3(C)C1[C@@H]2C (stereo partly specified)	8.16 µM	–
Nc1ccccc1S(=O)(=O)c1ccccc1	> 100 µM	–
Cc1c(N2C(=O)CS(=O)(=O)C2c2cccc(Oc3ccccc3)c2)c(=O)n(-c2ccccc2)n1C (stereo unspecified)	95.8 µM	–
COc1cc2c(ccc3c4cc(OC)c(OC)cc4c[n+](C)c23)cc1O	> 75 µM	–
CNC(=O)OCc1c(CO)nc(SC)n1C	> 100 µM	–
CN(C)CC(CC1=C(CC(CN(C)C)N(C)C)CCC1)N(C)C (stereo unspecified)	> 100 µM	–
CCC1CN(C(=O)c2ccccc2)C(Cc2c[nH]c3ccccc23)C(=O)C1CC(=O)OC (stereo unspecified)	> 100 µM	–
CC12CC3OC(=O)C1COC14OC5(C2C1=O)C(O)(CCC1C4CC(O)C2(O)CC=CC(=O)C12C)C(=O)OC35C (stereo unspecified)	> 100 µM	–
O=c1cccccc1[O-].O=c1cccccc1[O-].[O]=[U+2]=[O]	60.8 µM	–
COc1ccc(C(=O)/C=C/c2cccc([N+](=O)[O-])c2)c(OC)c1	> 50 µM	6.85 µM
CCOC(=O)C(NC(=O)c1ccco1)(Nc1nc2ccc(OCC)cc2s1)C(F)(F)F (stereo unspecified)	46.4 µM	–
CCC(C)C1=C(OC(C)=O)[N+]2([O-])Oc3ccc(-c4c(OC(C)=O)c(OC(C)=O)c(-c5ccc(OC(C)=O)cc5)c(OC(C)=O)c4OC(C)=O)cc3OC2(C(C)CC)C(=O)N1OC(C)=O (stereo unspecified)	> 50 µM	–
COc1cccc2c1Cc1cc(-c3ccccc3)[n+](C)n1-2	7.46 µM	–
O=C(OCN1C(=O)C2C3C=CC(C2C1=O)C1C2C(=O)N(COC(=O)C4CCCN4)C(=O)C2C31)C1CCCN1 (stereo unspecified)	> 100 µM	–
O=C(C[n+]1ccc2ccccc2c1)c1ccc2ccc3ccccc3c2c1	3.87 µM	–
NCCCCc1cc(O)c2c(c1O)C(=O)c1ccccc1C2=O	10.4 µM	–
Cc1ccccc1C(=O)N/N=C/c1ccc(Sc2nccn2C)c([N+](=O)[O-])c1	> 100 µM	–
CC(=O)C1=C(C)N(c2ccc(C)cc2)C2(O)C=CC(=O)C3C(=O)N(c4ccccc4)C(=O)C132 (stereo unspecified)	> 100 µM	–
COc1ccc2c(c1)[nH]c1c(/C=C/c3ccccc3)nccc12	19.9 µM	–
Clc1cc2c(cc1Cl)CC(NCCN1CCCC1)CC2 (stereo unspecified)	10.7 µM	–
[N-]=[N+]=CC(=O)c1ccccc1C#CCCc1ccccc1	71.1 µM	–
NCCSC(c1ccccc1)c1ccccc1	38.7 µM	–
CCCCCCCCC/C=C/C=C/C(=O)NCC(=O)NC1C(O)C(O)C(Nc2ncnc3nc[nH]c23)OC1C(O)CO (stereo unspecified)	0.00389 µM and 0.0337 µM	0.0002 µM
COc1nc(C#CC2(O)CCCCC2)nc(OC)n1	45.5 µM	–
C[C@H](CCC(=O)O)[C@H]1CC[C@@]2(C)[C@@H]3C(=O)C[C@H]4C(C)(C)[C@@H](O)CC[C@]4(C)[C@H]3C(=O)C[C@]12C	> 100 µM	–

The compounds below were run on OVCAR-5 ovarian (assay: NCI anticancer screen, dose series, 48 h).

Structure (SMILES)	TGI	GI50
CCOC(=O)C1=NN(c2ccc(C)cc2)C2=CC(C)=NN(C)C(=S)N21	> 100 µM	–
O=C(c1cccs1)N(C(=S)OC12CC3CC(CC(C3)C1)C2)c1ccccc1	> 100 µM	–
C(=N\NC1=NCCN1)/c1ccc(-c2cn3cc(/C=N/NC4=NCCN4)ccc3n2)cc1	> 100 µM	–
CC1CC[C@@]2(OC1)OC1C[C@H]3[C@@H]4CC=C5CC(OC6OC(CO)C(OC7OC(CO)C(O)C(OC8OCC(O)C(O)C8O)C7OC7OC(CO)C(O)C(O)C7O)C(O)C6O)CCC5(C)[C@H]4CCC3(C)C1[C@@H]2C (stereo partly specified)	> 25 µM	–
Nc1ccccc1S(=O)(=O)c1ccccc1	> 100 µM	–
Cc1c(N2C(=O)CS(=O)(=O)C2c2cccc(Oc3ccccc3)c2)c(=O)n(-c2ccccc2)n1C (stereo unspecified)	> 100 µM	–
COc1cc2c(ccc3c4cc(OC)c(OC)cc4c[n+](C)c23)cc1O	> 34.5 µM	–
CNC(=O)OCc1c(CO)nc(SC)n1C	> 100 µM	–
CN(C)CC(CC1=C(CC(CN(C)C)N(C)C)CCC1)N(C)C (stereo unspecified)	> 100 µM	–
CCC1CN(C(=O)c2ccccc2)C(Cc2c[nH]c3ccccc23)C(=O)C1CC(=O)OC (stereo unspecified)	> 100 µM	–
CC12CC3OC(=O)C1COC14OC5(C2C1=O)C(O)(CCC1C4CC(O)C2(O)CC=CC(=O)C12C)C(=O)OC35C (stereo unspecified)	> 100 µM	–
NC(=O)c1c(NC(=O)c2ccccn2)sc2c1CCC(=O)C2	> 100 µM	3.05 µM
COc1ccc(C(=O)/C=C/c2cccc([N+](=O)[O-])c2)c(OC)c1	> 50 µM	1.56 µM
CCOC(=O)C(NC(=O)c1ccco1)(Nc1nc2ccc(OCC)cc2s1)C(F)(F)F (stereo unspecified)	> 100 µM	–
CCC(C)C1=C(OC(C)=O)[N+]2([O-])Oc3ccc(-c4c(OC(C)=O)c(OC(C)=O)c(-c5ccc(OC(C)=O)cc5)c(OC(C)=O)c4OC(C)=O)cc3OC2(C(C)CC)C(=O)N1OC(C)=O (stereo unspecified)	> 50 µM	–
O=C(O)C1C2CCC(O2)C1C(=O)Nc1cccc2cccnc12 (stereo unspecified)	> 100 µM	–
COc1cccc2c1Cc1cc(-c3ccccc3)[n+](C)n1-2	> 100 µM	–
O=C(OCN1C(=O)C2C3C=CC(C2C1=O)C1C2C(=O)N(COC(=O)C4CCCN4)C(=O)C2C31)C1CCCN1 (stereo unspecified)	> 100 µM	–
O=C(C[n+]1ccc2ccccc2c1)c1ccc2ccc3ccccc3c2c1	19.8 µM	–
